Here are results for two substances from article PMC9221509, “Discovery of a Novel Antimicrobial Peptide, Temporin-PKE, from the Skin Secretion of Pelophylax kl. esculentus, and Evaluation of Its Structure-Activity Relationships” (Biomolecules, 2022).

No end group written: not given here.

One may read the IC50 as the concentration that gives 50% inhibition. A higher IC50 goes with weaker potency in that assay.

In one test the test system is HaCaT cells. Type of test: cell-based, human. Particulars: 24 h. The method, then:
(§1) The cytotoxicity of the peptides against the human epidermal keratinocyte line, HaCaT, was tested using the MTT cell viability assay as described in a previous study. The 100 µL of the cell suspension in a complete DMEM medium with a density of 10,000 cells/mL was seeded in a 96-well plate and incubated overnight at 37 °C in a humidified 5% CO2 atmosphere. After 4 h of starvation in a serum-free medium, 100 μL of serial dilutions (from 10^−9 M to 10^−4 M) of temporin-PKE and its analogues was added to each well, and the plate was incubated for 24 h. The serum-free medium and 0.1% Triton X-100 were used as the negative and positive control, respectively. Then, MTT solution, at a volume of 10 μL, was added to each well, and the plate was incubated for 2 h. After this, the medium was replaced by 100 μL of DMSO, and plates were put in the shaking incubator for 15 min. The absorbance of each well was measured using a microplate reader (EL808, Biolise BioTek, Winooski, VT, USA) set to a wavelength of 570 nm. The equation used to calculate the viability of the cells is shown below: Cell viability (%)=A−Ab/An−Ab×100% where A represents the absorbance of each treatment group, Ab represents the average absorbance of the wells in the blank control group (cells not exposed to the test peptide and MTT), and An represents the average absorbance of the wells in the negative control group (cells not exposed to the test peptide).

The test system of test [1] is MRSA (NCTC 12493) biofilm. Type of test: cell-based, methicillin-resistant Staphylococcus aureus. The settings on record: NCTC 12493, 24 h. The method, then:
The anti-biofilm activities of the peptides against S. aureus (ATCC 6538), MRSA (NCTC 12493), E. faecalis (NCTC 12697), E. coli (ATCC CRM 8739), K. pneumoniae (ATCC 43816), and P. aeruginosa (ATCC CRM 9027), were evaluated. For the MBIC assay, 99 µL of bacterial suspension (5 × 10^5 CFU/mL) was mixed with 1 µL of serial dilutions (from 100 µM to 51,200 µM) of temporin-PKE and its analogues in a 96-well plate, and the plate was incubated in a moist shaking incubator at a speed of 200 rpm at 37 °C for 24 h. For the MBEC assay, 100 µL of bacterial suspension (5 × 10^5 CFU/mL) in each well was seeded in a new 96-well plate, and the plate was put into the same shaking incubator for 24 h incubation to allow biofilm formation on the well. After biofilm formation, the biofilm in the plate was washed with PBS twice. The PBS was aspirated between washes to remove planktonic bacterial cells. The washed biofilm in each well was treated with 100 µL of serial dilutions (from 1 µM to 512 µM) of the test peptides. Then, the plate was incubated in the same shaking incubator for another 24 h. After being washed by PBS twice and fixed with methanol, the biofilm in each well was incubated with 100 µL of 0.1% crystal violet for 30 min, and the stained biofilm was dissolved in 100 µL of glacial acidic acid after drying. The solutions were transferred to a new microplate, and the absorbance of each well was measured using a microplate reader (EL808, Biolise BioTek, Winooski, VT, USA) set to 595 nm wavelength. The MBIC was the minimum concentration of the peptide showing no biofilm formation. The MBEC is the lowest concentration of the peptide capable of eradicating the mature biofilms, which had no biofilm in the well.

The next test concerns MRSA (NCTC 12493). Format: cell-based, methicillin-resistant Staphylococcus aureus. Particulars: NCTC 12493, 24 h. Here is the method:
The antimicrobial activities of peptides were evaluated against the Gram-positive bacteria, S. aureus (ATCC 6538), methicillin-resistant Staphylococcus aureus (MRSA) (NCTC 12493), Enterococcus faecalis (E. faecalis) (NCTC 12697); the Gram-negative bacteria, E. coli (ATCC CRM 8739), Klebsiella pneumoniae (K. pneumoniae) (ATCC 43816), Pseudomonas aeruginosa (P. aeruginosa) (ATCC CRM 9027); and the yeast, Candida albicans (C. albicans) (ATCC CRM 10231). Clinical isolates of MRSA (B042 V2E1 A), E. coli (ATCC BAA-2340), K. pneumoniae (ATCC BAA-1705), and P. aeruginosa (B004 V2S2 B) were also used to determine their antimicrobial activities. The suspension of microorganisms in the logarithmic growth phase with a specific final density (Gram-negative and Gram-positive bacteria: 5 × 10^5 CFU/mL; yeast: 1 × 10^6 CFU/mL) was incubated with different peptide concentrations from 1 µM to 512 µM at 37 °C for 24 h. PBS was used as the negative control, and norfloxacin and amphotericin B were selected as the positive control for bacteria and yeast, respectively. Since the Norfloxacin had weak activities against P. aeruginosa (B004 V2S2 B) and K. pneumoniae (ATCC BAA 1705), gentamicin was used as the positive control for these two bacterial strains. The absorbance of each well was obtained using a microplate reader (EL808, Biolise BioTek, Winooski, VT, USA) set at 550 nm wavelength. The MIC value was the lowest concentration of a peptide that inhibits visible bacterial growth. Once the MIC values were determined, an aliquot from the bacterial culture exposed to the peptide at or above its MIC value was inoculated on a Mueller Hinton agar (MHA) and was incubated at 37 for 18 h. The MBC value was the lowest concentration of a peptide that kills 99.9% of bacteria.
According to the procedures in a previous article, the analysis of the sensitivity of the peptides was determined by measuring MIC values in the presence of different types of salts and 10% fetal bovine serum. MRSA (NCTC 12493) and K. pneumoniae (ATCC 43816) were selected as the subjects of these assays. Various salts at different concentrations, including 150 mM NaCl, 4.5 mM KCl, 6 μM NH4Cl, 1 mM MgCl2, […], […], and 10% serum (Gibco, Auckland, New Zealand), were added to the MHB medium for the examination of the MIC values which were determined as described in Section 2.7.

For a further test, the system named is HCT-116 cells. Type of test: cell-based. Particulars: 24 h. The method, then: as §1
(§2) The anti-proliferative activities of peptides against HCT-116, NCI-H838 (H838), U251MG, PC-3, and NCI-H157 cell lines were determined by MTT cell viability assay, and the details were described in Section 2.9.

Another test relates to NCI-H157 cells. Format: cell-based. The settings on record: 24 h. The method, then: as §1, §2
A further test has as its system NCI-H838 (H838) cells. Type of test: cell-based. The settings on record: 24 h. Here is the method: as §1, §2
The next test relates to PC-3 cells. Format: cell-based. The settings on record: 24 h. The method, then:
as §1, §2

Another test has as its system U251MG cells. Type of test: cell-based. Particulars: 24 h. Here is the method: as §1, §2

In the test with HaCaT cells, FLPLIIGALSSLLPKIF-NH2 [Temporin-PKE] had a concentration for half-maximal inhibition (IC50) of 5.04 µM. The substance further came in with an MBIC in test [1] of 4 µM. In the test with MRSA (NCTC 12493), the “MIC against MRSA in the presence of 4 µM FeCl3” value came out at 8 µM, the “MIC against MRSA in the presence of 6 µM NH4Cl” value was 8 µM, the “MIC against MRSA in the presence of 8 µM ZnCl2” value was determined as 32 µM and the “MIC against MRSA in the presence of 1 mM MgCl2” value stood at 8 µM. In the test on MRSA (NCTC 12493), the “MIC against MRSA in the presence of 2 mM CaCl2” value turned out to be 8 µM, the “MIC against MRSA in the presence of 4.5 mM KCl” value worked out at 8 µM, the “MIC against MRSA in the presence of 150 mM NaCl” value is 8 µM and the “MIC against MRSA in the presence of 10% FBS” value was determined as 16 µM. Besides, in the test on MRSA (NCTC 12493), the “MIC against MRSA, Negative” value came out at 2 µM. This substance also registered an IC50 with HCT-116 cells of 21.3 µM. Besides, the 50% inhibitory concentration (IC50) with NCI-H157 cells worked out at 17.4 µM. The substance also came in with an IC50 in the test with NCI-H838 (H838) cells of 16.4 µM. In the test on PC-3 cells, half-maximal inhibition (IC50) required 7.29 µM. In the test with U251MG cells, this substance had an IC50 of 23.2 µM.
For the substance FLPLIIGKLSSLLPKIF-NH2 [Temporin-PKE-2K], in the test with HaCaT cells, the IC50 was found to be 9.04 µM. The substance further returned an MBIC in test [1] of 2 µM. Further, in the test with MRSA (NCTC 12493), the “MIC against MRSA in the presence of 4 µM FeCl3” value was 2 µM, the “MIC against MRSA in the presence of 6 µM NH4Cl” value came to 4 µM, the “MIC against MRSA in the presence of 8 µM ZnCl2” value was 16 µM and the “MIC against MRSA in the presence of 1 mM MgCl2” value came to 4 µM. In addition, in the test with MRSA (NCTC 12493), the “MIC against MRSA in the presence of 2 mM CaCl2” value was 4 µM, the “MIC against MRSA in the presence of 4.5 mM KCl” value is 4 µM, the “MIC against MRSA in the presence of 150 mM NaCl” value was found to be 8 µM and the “MIC against MRSA in the presence of 10% FBS” value came to 8 µM. Besides, the “MIC against MRSA, Negative” value against MRSA (NCTC 12493) amounted to 2 µM. The substance further registered an IC50 in the test with HCT-116 cells of 2.84 µM. The 50% inhibitory concentration (IC50) with NCI-H157 cells stood at 2.78 µM. In addition, in the test with NCI-H838 (H838) cells, the IC50 came to 3.07 µM. Also, in the test on PC-3 cells, the IC50 came to 2.64 µM. The substance further returned a 50% inhibitory concentration (IC50) in the test with U251MG cells of 2.49 µM.
